Experimental data from US9441017B2, “Water-soluble polypeptides comprised of repeat modules, method for preparing the same and method for a target-specific polypeptide and analysis of biological activity thereof” (priority 2011, dated 2016).
pKd: −log10 of the molar value. “Also recorded” adds a separate entry of the source.

Experiments:
[1] = tested on: LPS signal transduction in differentiated THP-1 cells; assay: TNF-α secretion of LPS-treated, PMA-differentiated THP-1 cells by ELISA; format: cell-based, human; settings: differentiated THP-1, 20 ng/ml LPS, 6 hours
Method: First, THP-1 monocyte (TIB-202TM, ATCC) was cultured in RPMI containing 10% FBS (Fetal Bovine Serum) and 50 µM 2-mercaptoethanol at 37° C. and 5% CO2. When cell density reached 90%, they were washed with a DPBS buffer solution (pH 7.4). Then, to increase the sensitivity to LPS, the cells were suspended in a medium supplemented with 200 nM PMA (phorbol 12-myristate-13-acetate), and aliquoted to a 96-well plate in a density of 2.5×10^4/well, followed by incubation for 72 hours at 37° C. and 5% CO2 for differentiation.
Prior to the experiment, 10 μg/ml of InlB-VLR and MD-2-added RPMI medium, and 10 μg/ml of MD-2 and 10 μg/ml of IVLR-added medium, 10 μg/ml of TV3-added medium, and 10 μg/ml of TV-3 and MD-2-added medium as control groups were prepared and left at 37° C. for 1 hour. Then, THP-1 differentiated into macrophage by PMA was washed with DPBS buffer solution (pH 7.4) three times, and the sample-containing RPMI media were treated with 20 ng/ml of LPS and THP-1, followed by incubation at 37° C. and 5% CO2 for 6 hours. After 6 hours, a predetermined amount of culture was taken from each well, and diluted 4-8 fold using DPBS buffer solution (pH 7.4), followed by ELISA (Enzyme-Linked Immunosorbent Assays) for the secreted TNF-α.
Monocyte THP-1 (TIB-202TM, ATCC) was cultured in RPMI media supplemented with 10% Fetal Bovine Serum (FBS) and 50 µM of 2-mercaptoethanol at 37° C. and 5% CO2. When the cells reached 90% confluence, they were washed with PBS buffer solution (pH 7.4). In order to increase LPS sensitivity, the cells were suspended in RPMI media containing 200 nM of PMA (phorbol 12-myristate-13-acetate), and plated in a 96-well plate at a density of 2.5×10^4 cells/well, and differentiated at 37° C. and 5% CO2 for 72 hours.
Prior to the experiment, the LPS inhibitor polymyxin B was diluted in RPMI at a concentration of 1-100 μg/ml, and incubated at 37° C. for 1 hour. […] The results were calculated from a standard curve of TNF-α.

[2] = reported, Akashi et al. 2003; read-out: binding affinity (Kd) for LPS; cited from earlier work
[3] = tested on: TLR4/MD-2 receptor activation by LPS; assay: NF-κB firefly/Renilla luciferase reporter assay in HEK293/hTLR4A-MD2-CD14 cells; format: cell-based, human; settings: HEK293/hTLR4A-MD2-CD14, 10 ng/ml LPS, 6 hours
Method: In order to monitor activation of TLR4-MD-2 receptor by LPS, an HEK293/hTLR4A-MD2-CD14 cell line (Invivogen) stably expressing TLR4 and MD2, CD14 genes, prepared by introduction of the genes into HEK293 cell, was used. The HEK293/hTLR4A-MD2-CD14 cell line was subcultured in an RPMI medium (Invitrogen) supplemented with 10% Fetal Bovine Serum (FBS) in an incubator at 37° C. and 5% CO2, and then used for the experiment.
In the present invention, the LPS inhibitor, polymyxin B (Invivogen) and the LPS antagonist, LPS-RS (Invivogen) were diluted in RPMI media at a concentration of 0.01-100 μg/ml, and reacted with 10 ng/ml of LPS at 37° C. for 1 hour. […]
First, the media were removed from the 24-well plate, and the plate was washed with a PBS buffer solution twice, and then 200 μl of passive lysis buffer (PLB) was added to each well for cell lysis. After 30 minutes, 20 μl of cell lysate was transferred to a new 96 well-plate, and then 100 μl of LAR II reagent containing a substrate of firefly luciferase was added to measure luminescence using a VICTOR X Multilabel Plate Reader (PerkinElmer) for 0.5 seconds. After measurement of firefly luciferase luminescence, 100 μl of STOP & GLO reagent containing a substrate of Renilla luciferase was added to measure Renilla luciferase luminescence for 0.5 second. […]

MD-2: Myeloid differentiation protein-2, also called lymphocyte antigen 96, a glycoprotein that binds LPS
inhibitory effect on LPS signal transduction (TNF-α secretion) [1]: weak inhibitory effect | pKd [2]: 7.19

TLR4/MD-2 complex: complex of Toll-like receptor 4 with MD-2
pKd [2]: 8.52

polymyxin B
inhibitory effect on LPS signal transduction (TNF-α secretion) [1]: reduction in TNF-α secretion; also recorded: reduction in LPS signal transduction | inhibitory effect on LPS signal transduction (relative firefly luciferase activity) [3]: relatively reduced luciferase activity; also recorded: relative reduction of firefly luciferase activity

sTLR4: soluble extracellular domain of cell membrane receptor TLR4
inhibitory effect on LPS signal transduction (TNF-α secretion) [1]: no LPS blocking activity | inhibitory effect on LPS signal transduction (relative firefly luciferase activity) [3]: no LPS blocking activity
